Results from patent USRE41998E1, “Compositions and methods of treatment of sympathetically maintained pain” (Arclon Therapeutics, Inc., priority 1990, dated 2010).
Read-outs that look alike come from different tables or passages of the source.

Tests used:
[1] = system: patients with SMP; conditions: cited from earlier work; for effect on pain in patients with SMP: in vivo
[2] = system: patients with SMP; experiment: Intravenous phentolamine block in patients with SMP; type: in vivo, human
Description: If peripheral α-adrenergic receptors are blocked completely, skin temperature would approach core temperature. Such a blockage would produce profound hypotension and a reflex tachycardia. […] This dose ranged from 35 mg to 45 mg over a 30 minute period.
The heart rate, systolic and diastolic blood pressure changes produced by phentolamine in a typical patient were relatively mild. In the first seven patients phentolamine alone was administered.
The patient was diagnosed as having SMP and then underwent local LABSG, and the administration of phentolamine systemically by intravenous injection.
Seventeen patients received both phentolamine and LABSG. The time of maximum relief of stimulus evoked pain correlated highly with the time at which there was maximum relief of stimulus-independent pain. All pain scores were converted to percent pain relief. The peak relief of stimulus independent pain for the LABSG compares favorably to the peak relief obtained from the phentolamine block. […] Patients with less than 50% pain relief from both procedures were considered to have pain independent of SMP. There was a high correlation of the results of the two procedures (r=0.78).

[3] = system: patients with SMP or SIP
Description: Patient Selection and Control Subjects: Six normotensive patients with chronic ongoing pain and cutaneous hyperalgesia to mechanical and cooling stimuli following soft tissue or nerve trauma were examined. All patients had previously undergone sympathetic blocks (i.e., local anesthetic blockade of the appropriate sympathetic ganglia) to assess the involvement of the sympathetic nerves in their pain state.
A series of 2-7 patches were applied consecutively to different sites within the hyperalgesic zone. Each patch was left in place for 2-10 days within this affected zone. Prior to, during and immediately after drug application, the following parameters were monitored: heart rate, blood pressure, ongoing pain and pain to mechanical and cold stimuli.
The scale consisted of a 100 mm line where “no pain” and “most intense pain” were indicated on the left and right ends of the scale respectively. […] The mechanical stimuli included innocuous brushing with a camel's hair brush and innocuous pressure from the 206 g weight of a 13 mm diameter (i.e., 2N) brass probe. Pain thresholds to mechanical stimuli were determined in the area within and surrounding the patch sites using calibrated von Frey filaments. The cooling stimulus consisted of small drops of acetone lightly placed onto the patient's skin. […] 3) Tactile sensibility: To rule out local anesthetic effects, the detection (touch) thresholds were determined in the area within the surrounding selected patch sites using calibrated von Frey filaments. In addition, the patient's ability to distinguish the blunt from the sharp ends of a pin was also assessed. The patients were instructed to close their eyes during the hyperalgesia and von Frey threshold testing procedures.

[4] = system: patient with SMP
[5] = system: normal subject
Description: Five normal subjects were used as controls. One subject was used to investigate the effect of clonidine on normal skin (i.e., the top of the foot). The four remaining subjects were used to assess the effect of intradermal norepinephrine and phenylephrine in normal skin.
To exclude further local anesthetic effects of clonidine, a clonidine patch was applied to the top of a normal subject's foot and sensory testing was performed prior to and 40 hours after the patch application.

[6] = system: α1 and α2 receptors; conditions: cited from earlier work
[7] = in vivo; cited from earlier work
[8] = system: patients with SMP; experiment: Intradermal norepinephrine and phenylephrine in SMP patients (clonidine patch site, normal site)
Description: Effects of Intradermal Norepinephrine and Phenylephrine: In two patients, intradermal injections of the non-specific α-adrenergic agonist norepinephrine (5 μg in 10 μl normal saline) or the α-adrenergic agonist phenylephrine (10 μg in 10 μl normal saline) were made at a patch site immediately after removing the patch. Norepinephrine and phenylephrine injections were also made at control sites on the patients' normal limb and into the normal skin of 4 healthy control subjects. […] All injection were made in a single-blinded fashion. The patients and control subjects were instructed to rate the magnitude of any evoked pain and resultant hyperalgesia on a verbal scale from 0 to 10.

[9] = system: healthy control subjects; experiment: Intradermal norepinephrine and phenylephrine in normal skin of control subjects; type: in vivo, human
Description: Five normal subjects were used as controls.
Effects of Intradermal Norepinephrine and Phenylephrine: In two patients, intradermal injections of the non-specific α-adrenergic agonist norepinephrine (5 μg in 10 μl normal saline) or the α-adrenergic agonist phenylephrine (10 μg in 10 μl normal saline) were made at a patch site immediately after removing the patch. […] All injection were made in a single-blinded fashion. The patients and control subjects were instructed to rate the magnitude of any evoked pain and resultant hyperalgesia on a verbal scale from 0 to 10.

**Q.** For `CC(C)NCC(O)COc1cccc2ccccc12` (stereo not shown) [propranolol], which “effect on pain in patients with SMP” value [1] is on record?
**A.** little effect on SMP

**Q.** And the “effect on pain when added after α-adrenergic blockade” value ([2]; 0.5 mg intravenously, five minutes after last phentolamine dose)?
**A.** did not add appreciably to the analgesia

**Q.** With `Clc1cccc(Cl)c1N=C1NCCN1` [clonidine] as the compound, how does the “mechanical detection thresholds inside and outside the patch site” value ([3]; Case 1) read?
**A.** identical

**Q.** And the “pain threshold to von Frey filaments within the patch site” value ([3]; Case 1)?
**A.** approximated the patient's ‘normal’ pain threshold

**Q.** What about the “ratings of stimulus-independent pain” value ([3]; Case 1) of the same compound?
**A.** not affected

**Q.** What about the “time hyperalgesia still absent after removing a patch” value ([3]; Case 1) of the same compound?
**A.** at least 12 hours

**Q.** What about the “Mechanical Hyperalgesia: post-clonidine” value ([3]; Case 1, SMP, lower extremity) of the same compound?
**A.** −

**Q.** And the “Touch Detection Threshold: post-clonidine” value (“Touch Detection Threshold” for short) ([3]; Case 1, SMP, pre-clonidine 4)?
**A.** 4 bars

**Q.** And the “ability to distinguish sharp from blunt stimuli” value ([3]; Case 1, after patch removal)?
**A.** not affected

**Q.** What about the “mechanical (brush, pressure) and cooling (acetone) stimuli at patch site” value ([3]; Case 1, after removal of patch applied for 36 hours) of the same compound?
**A.** detected but were not painful

**Q.** What about the “pain rating to light brushing at patch site” value ([3]; Case 1, after removal of patch, before norepinephrine injection, untreated skin 4 out of 10) of the same compound?
**A.** 1 out of 10

**Q.** What about the detection thresholds ([3]; Case 1, four patches (FIG. 2)) of the same compound?
**A.** unchanged

**Q.** What about the “hyperalgesia to mechanical stimuli” value ([3]; Case 1, four patches with quantitative sensory testing (FIG. 2)) of the same compound?
**A.** greatly reduced and, in many cases, completely eliminated

**Q.** What about the return of hyperalgesia ([3]; Case 1, from patch application) of the same compound?
**A.** within less than a week

**Q.** What about the “time to reduction of mechanical hyperalgesia after patch applied” value ([3]; Case 1, noted by patient) of the same compound?
**A.** 36 to 48 h

**Q.** And the “Mechanical Hyperalgesia: post-clonidine” value ([3]; Case 2, SMP, lower extremity)?
**A.** −

**Q.** And the “Touch Detection Threshold” value ([3]; Case 2, SMP, pre-clonidine 1)?
**A.** 1 bars

**Q.** What about the “Touch Detection Threshold” value ([3]; Case 3, SMP, pre-clonidine 1.5) of the same compound?
**A.** 1.5 bars

**Q.** And the “reduction of ongoing pain” value ([3]; Case 4)?
**A.** 50-75%

**Q.** And the “Mechanical Hyperalgesia: post-clonidine” value ([3]; Case 4, SMP, face)?
**A.** −

**Q.** And the “Touch Detection Threshold” value ([3]; Case 4, SMP, pre-clonidine 0.5)?
**A.** 0.5 bars

**Q.** And the “relief of hyperalgesia throughout entire affected zone” value ([3]; Case 4, application to the upper lip)?
**A.** complete relief of hyperalgesia

**Q.** What about the “Mechanical Hyperalgesia: post-clonidine” value ([3]; Case 5, SIP, upper extremity) of the same compound?
**A.** +

**Q.** And the “hyperalgesia and ongoing pain” value ([3]; Case 5, SIP, application to palmar aspect of the hand)?
**A.** Neither the patient's hyperalgesia nor ongoing pain were improved

**Q.** What about the “Touch Detection Threshold” value ([3]; Case 5, SIP, pre-clonidine 1) of the same compound?
**A.** 1 bars

**Q.** And the “hyperalgesia to cold stimuli” value ([3]; Case 6, SIP)?
**A.** not affected

**Q.** What about the “Mechanical Hyperalgesia: post-clonidine” value ([3]; Case 6, SIP, lower extremity) of the same compound?
**A.** +

**Q.** What about the “reduction in ongoing pain and mechanical hyperalgesia to brush stimuli” value ([3]; Case 6, SIP, patches on dorsum of the foot) of the same compound?
**A.** approximately 35%

**Q.** And the “Touch Detection Threshold” value ([3]; Case 6, SIP, pre-clonidine 2)?
**A.** 2 bars

**Q.** What about the “overall level of stimulus-independent pain” value ([3]; Cases 2, 3) of the same compound?
**A.** did not report any reduction

**Q.** And the “extent of hyperalgesia relief” value ([3]; Cases 2, 3, zone greater than half of lower extremity)?
**A.** only eliminated hyperalgesia at or near the site of drug application

**Q.** What about the “alteration in blood pressure or heart rate” value ([3]; any of the patients) of the same compound?
**A.** No appreciable alteration

**Q.** And the “pain or hyperalgesia (summary)” value ([3]; cases 5 and 6, pain independent of the sympathetics)?
**A.** little effect on pain or hyperalgesia

**Q.** What about the “skin reaction surrounding the patch site” value ([3]; following some patch applications, treatment discontinued in cases 1, 4) of the same compound?
**A.** erythematous rash

**Q.** What about the “mechanical and cold hyperalgesia at the site of drug administration (summary)” value ([3]; patients with SMP) of the same compound?
**A.** significantly reduced mechanical and cold hyperalgesia

**Q.** What about the “side effects from clonidine patches” value ([3]; six patients) of the same compound?
**A.** minor

**Q.** What about the “time to reduction of pain evoked by deep pressure, light brushing and cooling stimuli” value ([4]; after patch application) of the same compound?
**A.** 24 to 36 h

**Q.** What about the “time to complete abolition of evoked pain” value ([4]; following patch application) of the same compound?
**A.** ≤ 48 h

**Q.** What about the “persistence of effect after removal of the patch” value ([4]; human, in vivo) of the same compound?
**A.** more than 24 hours

**Q.** What about the “adverse side effects, cardiovascular parameters” value ([4]; same patient) of the same compound?
**A.** no adverse side effects or changes in cardiovascular parameters

**Q.** What about the “hyperalgesia of skin surrounding the patch” value ([4]; same patient) of the same compound?
**A.** remained hyperalgesic

**Q.** And the “relief of hyperalgesia in the skin underlying the patch” value ([4]; sciatic nerve injury patient, 0.2 or 0.3 mg/day patch, 6 patches, 2-10 days each)?
**A.** Complete relief

**Q.** And the “detection threshold to mechanical stimuli in the patient” value ([4]; test for local anesthetic effect)?
**A.** did not alter

**Q.** What about the “detection or pain threshold to mechanical stimuli in a normal subject” value ([5]; Example 2, test for local anesthetic effect) of the same compound?
**A.** did not alter

**Q.** What about the “pain and detection threshold to von Frey filaments” value ([5]; top of normal subject's foot, 40 hours after patch application) of the same compound?
**A.** Neither the pain nor detection threshold to von Frey filaments were affected

**Q.** Which “effect on pain in patients with SMP” value [1] does the source give for `CC(COc1ccccc1)N(CCCl)Cc1ccccc1` (stereo not shown) [phenoxybenzamine] here?
**A.** can be effective in relieving pain

**Q.** What about the “potency in blocking α1 (postsynaptic) receptors relative to α2 receptors” value [6] of the same compound?
**A.** approximately 100 fold

**Q.** For `Cc1ccc(N(CC2=NCCN2)c2cccc(O)c2)cc1` [phentolamine], which “effect on sympathetically-maintained pain and hyperalgesia” value ([1]; intravenous administration) is on record?
**A.** rapidly abolishes sympathetically-maintained pain and hyperalgesia

**Q.** What about the plasma half-life [7] of the same compound?
**A.** approximately 20 minutes

**Q.** What about the “potency in inhibiting α1- relative to α2-adrenergic receptors” value [6] of the same compound?
**A.** three to five

**Q.** What about the “pain relief following the blocks (local anesthetic sympathetic ganglion block, i.v. phentolamine)” value ([2]; Example 3 cases 1-4 (case 2 had no phentolamine block)) of the same compound?
**A.** 70-100%

**Q.** What about the “effect of block on pain” value ([2]; Example 3 cases 5, 6 (SIP)) of the same compound?
**A.** not affected

**Q.** And the “side effect: dizziness” value ([2]; IV phentolamine)?
**A.** 2 patients

**Q.** What about the “side effect: headache” value ([2]; IV phentolamine) of the same compound?
**A.** 3 patients

**Q.** And the “side effect: nasal stuffiness” value ([2]; IV phentolamine)?
**A.** 12 patients

**Q.** What about the “pain relief in patients with SMP (preliminary studies)” value ([2]; cumulative dose 35 mg to 45 mg over a 30 minute period) of the same compound?
**A.** effectively relieved pain

**Q.** And the heart rate change ([2]; first seven patients, phentolamine alone)?
**A.** increased moderately

**Q.** And the “time for pain to return to within 75% of baseline” value ([2]; five patients with more than 50% pain relief from phentolamine block)?
**A.** 2 to 7 h

**Q.** What about the “pain relief with the phentolamine block” value ([2]; one patient with 45% maximum relief with LABSG) of the same compound?
**A.** no relief

**Q.** And the pulse rate change ([2]; patients pretreated with propranolol 1-2 mg)?
**A.** minimal increase

**Q.** And the mean pain relief ([2]; patients who had 50% or greater pain relief following LABSG)?
**A.** 75%

**Q.** And the “reduction in pain as measured by visual analysis scores” value ([2]; person, SMP right foot, IV, accumulated dose of 25 mg over 15 minutes)?
**A.** 80%

**Q.** And the “time course over which pain gradually returned” value ([2]; same patient)?
**A.** about three

**Q.** And the “time pain remained at low level” value ([2]; same patient, after last phentolamine dose)?
**A.** about two

**Q.** What about the “patient's pain relieved” value ([2]; same patient, after two further injections each of 10 mg) of the same compound?
**A.** over 80%

**Q.** And the “gradual decrease in stimulus-independent pain” value ([2]; same patient, first 4 boli IV, total dose 15 mg)?
**A.** about 50%

**Q.** What about the blood pressure change ([2]; supine, with or without propranolol) of the same compound?
**A.** little effected

**Q.** Which results are given for `NC[C@H](O)c1ccc(O)c(O)c1` [norepinephrine]?
**A.** pain or hyperalgesia in normal subjects ([1]; intradermal injection): does not cause pain or hyperalgesia; effect on pain and hyperalgesia relieved by sympathectomy or sympathetic block ([1]; intradermal injection, patients): rekindles the pain and hyperalgesia; pain evoked by injection at clonidine patch site ([8]; Case 1, intradermal 5 μg in 10 μl saline): intense, burning pain sensation; mechanical hyperalgesia rating at the patch site ([8]; Case 1, twenty-five minutes after injection): 3.5 out of 10; pain and hyperalgesia after injection into normal limb ([8]; Cases 1 and 4, normal limb): evoked intense pain, but did not result in hyperalgesia; pain and hyperalgesia after intradermal injection into the leg ([9]; four control subjects, norepinephrine 5 μg): mild, short lasting pain and no hyperalgesia

**Q.** For `COc1cc2nc(N3CCN(C(=O)c4ccco4)CC3)nc(N)c2cc1OC` [prazosin], which “effect on pain in patients with SMP” value [1] is on record?
**A.** can be effective in relieving pain

**Q.** What about the receptor subtype selectivity [6] of the same compound?
**A.** highly selective α1-blocking agent

**Q.** Which “pain evoked at control site (volar forearm)” value ([8]; Case 4) does the source give for `CNC[C@H](O)c1cccc(O)c1` [phenylephrine] here?
**A.** moderate pain of shorter duration

**Q.** And the “ongoing level of pain” value ([8]; Case 4, approximately 25 minutes after injection)?
**A.** increased substantially

**Q.** And the “pain evoked by injection at clonidine patch site” value ([8]; Case 4, intradermal 10 μg in 10 μl saline, after 3 days of clonidine)?
**A.** intense stinging pain

**Q.** What about the “pain and hyperalgesia after injections” value ([9]; control subjects, phenylephrine 10 μg) of the same compound?
**A.** Only brief, mild pain sensations and no hyperalgesia
